Measured values as given in ChEMBL document CHEMBL6127052, “Discovery of membrane-targeting amphiphilic honokiol derivatives containing an oxazolethione moiety to combat methicillin-resistant Staphylococcus aureus (MRSA) infections” (Eur J Med Chem, 2024).
Calls of active or inactive are those of the source. No cut-off for these calls is given here.

Legend:
[1] = system: Staphylococcus aureus; assay: Induction of membrane depolarization in methicillin-resistant Staphylococcus aureus clinical isolate M12 at 32 times MIC measured for 10 mins by DiSC3(5) dye based analysis; type: functional, organism-based
[2] = system: Staphylococcus aureus; assay: Induction of membrane permeability in methicillin-resistant Staphylococcus aureus clinical isolate M12 at 8 to 32 times MIC measured for 15 mins by SYTOX Green dye based analysis; type: functional, organism-based
[3] = system: Staphylococcus aureus; assay: Disruption of cell membrane in methicillin-resistant Staphylococcus aureus clinical isolate M12 assessed as fold increase in protein leakage at 8 times MIC incubated for 4 hrs by BCA assay relative to control; type: functional
[4] = Toxicity in KM mouse infected with methicillin-resistant Staphylococcus aureus clinical isolate M12 assessed as damage in kidney at 5 to 10 mg/kg, sc measured after 24 hrs by H and E staining based analysis; type: organism-based; settings: in vivo, dose 5-10 mg/kg
[5] = Toxicity in KM mouse assessed as change in WBC count at 20 mg/kg, sc measured after 24 hrs; type: organism-based; settings: in vivo
[6] = Toxicity in KM mouse infected with methicillin-resistant Staphylococcus aureus clinical isolate M12 assessed as histopathological abnormality in kidney at 5 to 10 mg/kg, sc measured after 24 hrs by H and E staining based analysis; type: organism-based; settings: in vivo, dose 5-10 mg/kg
[7] = system: Staphylococcus aureus; assay: Antibacterial activity against methicillin-resistant Staphylococcus aureus clinical isolate M21 by CLSI based micro-broth dilution method; type: functional
[8] = Toxicity in KM mouse assessed as pathological change in white medulla of spleen at 20 mg/kg, sc measured after 24 hrs by H and E staining based analysis; type: organism-based; settings: in vivo
[9] = Toxicity in KM mouse assessed as edema in lung epithelial cells at 20 mg/kg, sc measured after 24 hrs by H and E staining based analysis; type: organism-based; settings: in vivo
[10] = system: Staphylococcus aureus; assay: Bactericidal activity against Staphylococcus aureus ATCC 29213 at 8 times MIC incubated upto 8 hrs by time-kill assay; type: functional, organism-based
[11] = Toxicity in BALB/c mouse assessed as inflammatory cell infiltration in hepatocytes at 15 mg/kg, ip bid for 7 days; type: organism-based; settings: in vivo, 168 h, time 7 day
[12] = Toxicity in KM mouse assessed as intact structure in skin layers at 20 mg/kg, sc measured after 24 hrs by H and E staining based analysis; type: organism-based; settings: in vivo
[13] = Toxicity in KM mouse assessed as inflammatory cells in skin section at 20 mg/kg, sc measured after 24 hrs by H and E staining based analysis; type: organism-based; settings: in vivo
[14] = system: Staphylococcus aureus; assay: Antibacterial activity against methicillin-resistant Staphylococcus aureus clinical isolate M12 infected in sepsis BALB/c mouse model assessed as decrease in degeneration of renal tubular epithelial cells at 6 to 12 mg/kg, ip administered consecutively at 12 hr-interval for 24 hrs measured after 24 hrs post-last dose by H and E staining based analysis; type: functional, organism-based; settings: dose 6-12 mg/kg, time 48.0 hrs
[15] = Toxicity in KM mouse assessed as inflammatory cell infiltration in renal tubular epithelial cells at 20 mg/kg, sc measured after 24 hrs by H and E staining based analysis; type: organism-based; settings: in vivo
[16] = system: Staphylococcus aureus; assay: Antibacterial activity against methicillin-resistant Staphylococcus aureus clinical isolate M20 by CLSI based micro-broth dilution method; type: functional
[17] = system: Staphylococcus aureus; assay: Antibacterial activity against methicillin-resistant Staphylococcus aureus clinical isolate M13 by CLSI based micro-broth dilution method; type: functional
[18] = system: Staphylococcus aureus; assay: Bactericidal activity against methicillin-resistant Staphylococcus aureus clinical isolate M12 infected in KM mouse assessed as decrease in inflammatory cells in epidermis at 10 mg/kg, sc measured after 24 hrs; type: functional, organism-based
[19] = Toxicity in BALB/c mouse assessed as animal death at 40 mg/kg, ip bid for 7 days; type: organism-based; settings: in vivo, 168 h, time 7 day
[20] = Toxicity in BALB/c mouse assessed as pathological change in red medulla of spleen at 15 mg/kg, ip bid for 7 days; type: organism-based; settings: in vivo, 168 h, time 7 day
[21] = system: Staphylococcus aureus; assay: Induction of cell membrane damage in methicillin-resistant Staphylococcus aureus clinical isolate M12 assessed as increase in red fluorescence at 8 times MIC incubated for 4 hrs by DAPI/PI staining based analysis; type: functional, organism-based
[22] = Toxicity in KM mouse assessed as pathological change in lung at 20 mg/kg, sc measured after 24 hrs by H and E staining based analysis; type: organism-based; settings: in vivo
[23] = Toxicity in KM mouse assessed as degeneration of renal tubular epithelial cells at 20 mg/kg, sc measured after 24 hrs by H and E staining based analysis; type: organism-based; settings: in vivo
[24] = Toxicity in KM mouse assessed as pathological change in spleen at 20 mg/kg, sc measured after 24 hrs by H and E staining based analysis; type: organism-based; settings: in vivo
[25] = Toxicity in KM mouse assessed as degeneration of lung epithelial cells at 20 mg/kg, sc measured after 24 hrs by H and E staining based analysis; type: organism-based; settings: in vivo
[26] = Toxicity in KM mouse assessed as pathological change in red medulla of spleen at 20 mg/kg, sc measured after 24 hrs by H and E staining based analysis; type: organism-based; settings: in vivo
[27] = system: Staphylococcus aureus; assay: Antibacterial activity against methicillin-resistant Staphylococcus aureus clinical isolate M12 infected in sepsis BALB/c mouse model assessed as decrease in bacterial load in spleen at 12 mg/kg, ip administered consecutively at 12 hr-interval for 24 hrs measured after 24 hrs post-last dose; type: functional; settings: time 48 hrs
[28] = system: Staphylococcus aureus; assay: Disruption of cell membrane in methicillin-resistant Staphylococcus aureus clinical isolate M12 assessed as accumulation of intracellular ROS level incubated for 40 mins by DCFH-DA probe based analysis; type: functional, organism-based; settings: dose <= 128.0 µg/ml
[29] = system: Staphylococcus aureus; assay: Antibacterial activity against methicillin-resistant Staphylococcus aureus clinical isolate M12 infected in KM mouse assessed as decrease in pus formation in subcutaneous area at 10 mg/kg, sc measured after 24 hrs; type: functional, organism-based
[30] = Selectivity index, ratio of HC50 for hemolytic activity in sheep erythrocytes to MIC for antibacterial activity against Staphylococcus aureus ATCC 29213; type: toxicity, cell-based, RBC
[31] = Toxicity in BALB/c mouse assessed as change in blood routine index at 15 mg/kg, ip bid for 7 days; type: organism-based; settings: in vivo, 168 h, time 7 day
[32] = Toxicity in KM mouse assessed as change in HCT level at 20 mg/kg, sc measured after 24 hrs; type: organism-based; settings: in vivo
[33] = system: Staphylococcus aureus; assay: Antibacterial activity against Staphylococcus aureus ATCC 29213 by CLSI based micro-broth dilution method; type: functional
[34] = Toxicity in BALB/c mouse assessed as knotted hair at 40 mg/kg, ip bid for 7 days; type: organism-based; settings: in vivo, 168 h, time 7 day
[35] = Toxicity in KM mouse infected with methicillin-resistant Staphylococcus aureus clinical isolate M12 assessed as histopathological abnormality in lung at 5 to 10 mg/kg, sc measured after 24 hrs by H and E staining based analysis; type: organism-based; settings: in vivo, dose 5-10 mg/kg
[36] = Toxicity in KM mouse assessed as change in creatinine level at 20 mg/kg, sc measured after 24 hrs; type: organism-based; settings: in vivo
[37] = Toxicity in KM mouse assessed as degeneration of hepatocytes at 20 mg/kg, sc measured after 24 hrs by H and E staining based analysis; type: organism-based; settings: in vivo
[38] = system: Staphylococcus aureus; assay: Bactericidal activity against Staphylococcus aureus ATCC 29213 at 8 times MIC incubated for 6 hrs by time-kill assay relative to control; type: functional
[39] = system: Staphylococcus aureus; assay: Antibacterial activity against methicillin-resistant Staphylococcus aureus clinical isolate M12 incubated for 16 to 18 hrs in presence of peptidoglycan; type: functional; settings: time 16-18 hrs

C=CCc1cc(-c2ccc(OCCC[N+](C)(C)CC(=O)NCCCC)c(CC=C)c2)c2oc(=S)n(Cc3ccc(F)cc3)c2c1.[Br-]
Activity [1]: Active
Activity [2]: Active
fold change (FC) [3]: ~4
Activity [4]: Non-Toxic
Activity [5]: Non-Toxic
Activity [6]: Non-Toxic
MIC [7]: 2 µg/mL
Activity [8]: Non-Toxic
Activity [9]: Non-Toxic
Activity [10]: Active
Activity [11]: Non-Toxic
Activity [12]: Non-Toxic
Activity [13]: Non-Toxic
Activity [14]: Active
Activity [15]: Non-Toxic
MIC [16]: 2 µg/mL
MIC [17]: 4 µg/mL
Activity [18]: Active
Activity [19]: Toxic
Activity [20]: Non-Toxic
Activity [21]: Active
Activity [22]: Non-Toxic
Activity [23]: Non-Toxic
Activity [24]: Non-Toxic
Activity [25]: Non-Toxic
Activity [26]: Non-Toxic
Activity [27]: 1.67 log10CFU/g
Activity [28]: Dose-Dependent Effect
Activity [29]: Active
selectivity ratio [30]: 95.1
Activity [31]: Non-Toxic
Activity [32]: Non-Toxic
MIC [33]: 2 µg/mL
Activity [34]: Toxic
Activity [35]: Non-Toxic
Activity [36]: Non-Toxic
Activity [37]: Non-Toxic
Activity [38]: 100%
MIC [39]: 2 µg/mL
